Entries after “also recorded” stand apart in the source; their conditions may differ.
Tests used:
HIV-1 = test: U1 latent infection assay, antiviral (reverse transcriptase); format: cell-based; conditions: U1 latent infection assay
Description: Histocytic leukemia cell line U937, latently infected with HIV-1, are treated with TNFα to induce virus expression in the presence of test compound. Antiviral activity is determined as a reduction in reverse transcriptase after 72 hr incubation.
TI=TC/IC; also referred to as Therapeutic Index values (TI) or Antiviral Index (AI)
The histocytic leukemia cell line U937, latently infected with HIV-1, was treated with TNFα to induce virus expression in the presence of test compound. Antiviral activity was determined as a reduction in reverse transcriptase after 72 hr incubation. Temacrazine, an inhibitor of HIV transcription initiation, was used as the positive control for the assay.

[1] = Pharmacokinetic summary across mouse, rat and dog; format: in vivo
Description: Particularly for chronic conditions, oral administration is preferred. Typical dosages for oral administration would be approximately 5-500 mg/kg per day.
For some embodiments, delivery of compound K by injection, such as intramuscular or intravenous, may be preferred. […] The dosage for injected delivery (IV) can be about half of the oral dosage since injection bypasses the absorption barriers that reduce oral bioavailability. For delivery by injection, lower doses such as 1-25 mg/kg per day may be used to achieve similar plasma levels of drug.

IL-8 = IL-8 production in prostate cancer cells; format: cell-based
[2] = Pharmacokinetics in dog (IV bolus or oral dose); format: in vivo; conditions: for AUC(0-inf) / Cmax / half-life / Vd: plasma; for half-life: read-out: Terminal T1/2 (converted); for Vd: read-out: Vdss
Description: (§1) The pharmacokinetics properties of drugs were investigated in three species, following an intravenous (IV) bolus or oral (PO) dose of Compound K at the dosages indicated in the chart. Blood samples were collected at predetermined times and the plasma separated. Plasma was separated from the blood samples collected at 5, 15 and 30 minutes and 1, 2, 4, 8 and 24 hours post-dose.
(§2) Drug levels were quantified by the LC/MS/MS method described below. Noncompartmental pharmacokinetic analysis was applied for intravenous administration. A linear trapezoidal rule was used to compute AUC(0-24). The terminal t1/2 and C0 were calculated using the last three and the first three data points, respectively
(§3) Bioanalysis was performed using a Quattro Micro LC/MS/MS instrument in the MRM detection mode, with an internal standard (1S). Briefly, 15 μL plasma samples were prepared for analysis using protein precipitation with 120 μL of acetonitrile. The supernatants were transferred into a 96 well plate and subjected to LC-MS/MS analysis using a Phenomenex Polar-RP HPLC column. The mobile phases were 10 mM NH4HCO3 in water (Solution-A) and 10 mM NH4HCO3 in methanol (Solution-B). The column was initially equilibrated with 25% Solution-B and followed with 100% Solution B over 5 minutes. […] Quantitation of the analytes was performed in the batch mode with two bracketing calibration curves according to the bioanalytical sample list.

[3] = system: CFA-induced thermal hyperalgesia; test: CFA-induced thermal hyperalgesia model (Hargreaves); format: in vivo, ICR mice; conditions: 25, 75 or 150 mg/kg BID for four days, dosed as suspensions
Description: The observations of pain responses were done blindly.
[…] On day 4, test subjects received a single injection of CFA (20 microliters) subcutaneously in the plantar surface of the left rear paw. CFA was injected subcutaneously into the plantar surface of the left hind paw of each test subject, under isoflurane anesthesia. […] On day 5, thermal responses were measured prior to treatment with the compound and again 1, 2, and 4 hours after treatment with […]. Withdrawal latencies were measured in response to thermal stimulus by the Hargreaves method. Naproxen was used as a positive control.

HIPK3 = HIPK3 (Homo sapiens, UniProt Q9H422); test: Kinase panel IC-50, HIPK3; format: biochemical
Sequence of HIPK3 (Q9H422 whole entry, species assumed): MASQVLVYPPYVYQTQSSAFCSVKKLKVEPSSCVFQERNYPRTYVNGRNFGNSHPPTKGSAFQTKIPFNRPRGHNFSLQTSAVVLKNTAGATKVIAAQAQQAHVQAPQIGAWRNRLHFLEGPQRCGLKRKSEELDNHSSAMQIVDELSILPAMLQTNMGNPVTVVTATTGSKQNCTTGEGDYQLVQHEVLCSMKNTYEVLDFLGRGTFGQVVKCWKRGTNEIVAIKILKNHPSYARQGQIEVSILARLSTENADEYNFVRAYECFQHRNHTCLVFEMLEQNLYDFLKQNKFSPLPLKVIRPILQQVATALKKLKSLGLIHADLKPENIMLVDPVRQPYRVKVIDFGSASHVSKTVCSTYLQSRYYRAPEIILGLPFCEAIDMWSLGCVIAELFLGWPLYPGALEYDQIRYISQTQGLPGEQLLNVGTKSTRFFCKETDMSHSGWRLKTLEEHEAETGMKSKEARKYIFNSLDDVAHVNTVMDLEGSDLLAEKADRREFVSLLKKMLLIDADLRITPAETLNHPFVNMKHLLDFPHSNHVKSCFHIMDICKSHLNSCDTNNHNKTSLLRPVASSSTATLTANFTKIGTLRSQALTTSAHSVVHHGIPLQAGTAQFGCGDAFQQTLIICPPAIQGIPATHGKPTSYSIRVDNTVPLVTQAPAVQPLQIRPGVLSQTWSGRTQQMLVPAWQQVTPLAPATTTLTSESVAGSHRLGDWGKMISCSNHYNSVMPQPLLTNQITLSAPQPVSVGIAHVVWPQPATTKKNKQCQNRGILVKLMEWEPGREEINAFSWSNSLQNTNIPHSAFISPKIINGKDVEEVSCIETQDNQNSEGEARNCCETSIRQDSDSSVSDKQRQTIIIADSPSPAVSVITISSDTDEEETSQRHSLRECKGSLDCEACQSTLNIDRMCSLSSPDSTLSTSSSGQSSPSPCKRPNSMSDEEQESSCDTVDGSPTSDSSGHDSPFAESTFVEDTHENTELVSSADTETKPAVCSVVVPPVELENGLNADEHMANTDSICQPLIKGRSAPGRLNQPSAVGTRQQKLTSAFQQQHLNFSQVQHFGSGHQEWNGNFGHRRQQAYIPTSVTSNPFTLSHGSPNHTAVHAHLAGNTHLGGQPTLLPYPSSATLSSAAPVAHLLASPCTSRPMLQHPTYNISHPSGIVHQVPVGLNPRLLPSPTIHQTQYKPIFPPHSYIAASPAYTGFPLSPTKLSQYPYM

xenograft tumor = test: Xenograft tumor growth (pre-clinical); format: in vivo; conditions: single agent
[4] = system: formalin-induced persistent pain; test: Formalin-induced persistent pain model (flinching); format: in vivo, ICR mice
Description: See Hunskaar, et al., “The formalin test in mice: Dissociation between inflammatory and non-inflammatory pain,” Pain, vol. […] 89, 53-63 (2000). These tests were conducted with ICR mice, in accordance with guidelines established by the International Association for the Study of Pain. Compounds of the invention were used as solutions of about 3-20 mg/mL in aqueous solution at about pH 8. […] The test animals were monitored for at least 40 minutes, during which time the number of flinches occurring during each 5-minute period were observed and recorded. A cohort of 12 animals were used for each dose level of each compound tested.
The compounds were administered orally in a single dose, of 30, 100, and 200 mg/kg, one hour prior to injection of formalin Pain response was measured by flinching frequency.

[5] = Pharmacokinetics in rat (IV bolus or oral dose); format: in vivo
Description: as §1, §2, §3

[6] = Pharmacokinetics in mouse (IV bolus or oral dose); format: in vivo; conditions: Mouse; for Cmax: read-out: Cmax
Description: as §1
Drug levels were quantified by the LC/MS/MS method described below. Noncompartmental pharmacokinetic analysis was applied for intravenous administration. […] The terminal t1/2 and C0 were calculated using the last three and the first three data points, respectively
as §3

[7] = Dog, 1.6 mg/kg IV, different lot
[8] = Dog, 7.7 mg/kg PO, filled capsules, different lot
[9] = Dog, 8.2 mg/kg PO, filled capsules

For O=C(O)c1ccc2c(c1)nc(Nc1cccc(Cl)c1)c1ccncc12 [Compound K, 5-(3-chlorophenylamino)benzo[c][2,6]naphthyridine-8-carboxylic acid], the “inhibition of virus production” value (HIV-1) was “no significant inhibition of virus production”, the bioavailability ([1]; plasma, po, rat and dog, administered orally) was 20 to 50% and the half-life ([1]; plasma, rat and dog, oral) was 5 to 12 h. For the same compound, the “clearance rate in vivo” value ([1]; rat and dog) was “relatively low clearance rate”, the half-life ([1]; rat, dog, plasma, other: injected (such as intramuscular or intravenous), when injected) was 5 to 12 h and the IL-8 production (IL-8; ELISA (24 hr)) was “suppression of IL-8 production”. For the same compound, the IL-8 production (IL-8; qRT-PCR (8 hr)) was “suppression of IL-8 production”, the CLs [2, 7] was 15 mL/min/kg and the CLs ([2]; Dog, 1.9 mg/kg IV) was 12 mL/min/kg. For the same compound, the “Terminal T1/2” value ([2]; Dog, 1.9 mg/kg IV) was 8.3 h, the “% F0-inf” value [2, 8] was 41.8% and the “% F0-inf” value [2, 9] was 51.5%. The AUC(0-inf) ([2]; dog, iv, 1.6 mg/kg) was 1640 ng·h/mL, the AUC(0-inf) ([2]; dog, po, 7.7 mg/kg) was 3440 ng·h/mL and the Cmax [2, 7] was 4440 ng/mL. For the same compound, the half-life [2, 7] was 8.3 h, the Vd [2, 7] was 11.3 L/kg and the Cmax ([2]; Dog, 1.9 mg/kg IV) was 5780 ng/mL. The AUC(0-inf) ([2]; Dog, 1.9 mg/kg IV, 25 mM sodium phosphate buffer) was 2540 ng·h/mL, the Vd ([2]; Dog, 1.9 mg/kg IV) was 8.9 L/kg and the Cmax [2, 8] was 2730 ng/mL. For the same compound, the half-life [2, 8] was 9.9 h, the AUC(0-inf) [2, 9] was 5650 ng·h/mL and the Cmax [2, 9] was 2180 ng/mL. The half-life [2, 9] was 5.2 h, the “effect on CFA-induced thermal hyperalgesia” value [3] was “Neither compound exhibited a statistically significant effect” and the IC50 (HIPK3) was 45 nM. The xenograft tumor growth (xenograft tumor) was “single-agent potency in suppressing xenograft tumor growth”, the “formalin-induced flinching, Phase II” value ([4]; 10-40 minute phase post-injection, single oral dose 30, 100, 200 mg/kg) was “significantly reduced formalin-induced flinching; also recorded: statistically significant effects were seen in two of the three test groups” and the “formalin-induced flinching, Phase II” value ([4]; 10-40 minute phase, 30 mg/kg oral) was “effective”. The “formalin-induced flinching, Phase II” value ([4]; 10-40 minute phase, 200 mg/kg oral) was “effective”, the “formalin-induced flinching, Phase I” value ([4]; first 9 minute phase post-injection, single oral dose 30, 100, 200 mg/kg one hour prior to formalin) was “neither compound affected rates of flinching; also recorded: not statistically significant” and the CLs ([5]; 5.2 mg/kg IV) was 1.7 mL/min/kg. The “Terminal T1/2” value ([5]; 5.2 mg/kg IV) was 11.6 h, the “% F0-inf” value ([5]; 10.5 mg/kg PO) was 47.8% and the Cmax ([5]; plasma, 5.2 mg/kg IV) was 38700 ng/mL. It also gave an AUC(0-inf) ([5]; plasma, 5.2 mg/kg IV, 25 mM sodium phosphate buffer) of 44300 ng·h/mL, a Vd ([5]; plasma, 5.2 mg/kg IV, read-out: Vdss) of 2 L/kg and a Cmax ([5]; plasma, 10.5 mg/kg PO) of 7370 ng/mL. It also gave an AUC(0-inf) ([5]; plasma, 10.5 mg/kg PO, 25 mM phosphate buffer) of 42300 ng·h/mL, a half-life ([5]; plasma, 10.5 mg/kg PO, read-out: Terminal T1/2 (converted)) of 12.3 h and a CLs ([6]; 5 mg/kg IV) of 41.7 mL/min/kg. The “Terminal T1/2” value ([6]; 5 mg/kg IV) was 5.0 h, the “% F0-inf” value ([6]; 25 mg/kg PO) was 20.1% and the AUC(0-inf) ([6]; in vivo, 5 mg/kg IV, 25 mM sodium phosphate buffer) was 2000 ng·h/mL. The Cmax ([6]; in vivo, 5 mg/kg IV) was 6700 ng/mL, the Vd ([6]; in vivo, 5 mg/kg IV, read-out: Vdss) was 18.1 L/kg and the AUC(0-inf) ([6]; in vivo, 25 mg/kg PO, 25 mM phosphate buffer) was 2010 ng·h/mL. It also gave a Cmax ([6]; in vivo, 25 mg/kg PO) of 311 ng/mL and a half-life ([6]; in vivo, 25 mg/kg PO, read-out: Terminal T1/2 (converted)) of 7.1 h.

Source: patent US20100267753A1, “METHODS OF TREATING DISORDERS ASSOCIATED WITH PROTEIN KINASE CK2 ACTIVITY” (priority 2009, published 2010)
